Test results as given in PubChem BioAssay AID1845201 (Molecular Pharmacology Branch, DTP, NCI, 2023).
Where “and” joins values, the source holds several entries; their conditions need not be identical. Equal values may be shown once.

Test system: COR L88 complex tumor spheroid viability
Experiment: Anticancer human tumor COR L88 cell line growth inhibition;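 also: compound exposure lasted 7 days before viability readout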;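 as to viability, T/C: percent of DMSO vehicle-treated spheroids = 100%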
Conditions: for viability, T/C: stronger effect = lower value
Description: Multicellular complex tumor spheroid response to DNA repair inhibitors in combination with DNA-damaging drugs
This study explores the anticancer activities of DNA-damaging drugs and inhibitors of DNA damage repair, both as single agents and in combinations. Complex tumor spheroids comprised of malignant cells, endothelial cells and mesenchymal stem cells served as an in vitro model for human solid tumors. This model system incorporates physiologically relevant features and patient-derived or established malignant cell lines with clinically relevant genetic alterations from many tumor types. Twenty-six patient-derived or established malignant cell lines were evaluated representing sarcoma, melanoma, small cell lung cancer (SCLC), non-small cell lung cancer (NSCLC), as well as bladder, ovarian and pancreatic cancers. The concentration ranges selected for each drug and investigational agent were based upon clinically achievable concentrations if the clinical Cmax of the agent was known.
Compounds. The drugs and compounds olaparib (NSC753686), talazoparib (NSC767125), berzosertib (NSC777718), elimusertib (NSC800525), nedisertib (NSC802822), VX-984 (NSC792969), AZD-1390 (NSC803789), temozolomide (NSC362856), topotecan (NSC609699), trabectedin (NSC813783), staurosporine (NSC755774), and gemcitabine (NSC613327) were obtained from the National Cancer Institute (NCI) Developmental Therapeutics Program Chemical Repository. The FDA-approved anticancer drug set is available from the Developmental Therapeutics Program at https://dtp.cancer.gov/organization/dscb/obtaining/available_plates.htm. […] The stock solutions were prepared in dimethyl sulfoxide (DMSO, Sigma-Aldrich, St. Louis, MO, cat. D2650) at 400-fold the tested concentration and stored at -70 degrees C. Prior to their use, the stock solutions were diluted in fresh medium and the final DMSO concentration in the assay was 0.25% (v/v). All drugs and investigational agents were tested over a range starting from a high concentration at or near the clinical Cmax and decreasing in half-log increments. If the clinical Cmax for an agent had not been determined, the highest concentration tested was 10 microM.
Cell Lines. The patient-derived cancer cell (PDC) lines: 156681-154-R-J1-PDC, 283228-195-R-J1-PDC, 287954-098-R-J1-PDC, 292921-168-R-J2-PDC, 349418-098-R-PDC, 425362-245-T-J1-PDC, 556581-035-R-J1-PDC, and BL0293-F563-PDC were received from the NCI Patient-Derived Models Repository (PDMR, https://pdmr.cancer.gov). The established cell lines HS-SY-2 (RRID:CVCL_8719), MPNST, and SYO-1 (RRID:CVCL_7146) were obtained from the Sloan Kettering Institute. The alveolar soft parts sarcoma cell line ASPS-1 (RRID:CVCL_S738) was established at the NCI and grown from internal seed stocks. The following established cell lines were purchased from the American Type Culture Collection (ATCC, Manassas, VA): G-401 (ATCC, cat. CRL-1441, RRID:CVCL_0270), SW982 (ATCC, cat. HTB-93, RRID:CVCL_1734), VA-ES-BJ (ATCC, cat. CRL-2138, RRID:CVCL_1785), NCI-H719 (ATCC, cat. CRL-5837, RRID:CVCL_1582), NCI-H196 (ATCC, cat. CRL-5823, RRID:CVCL_1509), NCI-H841 (ATCC, cat. CRL-5845, RRID:CVCL_1595), NCI-H1618 (ATCC, cat. CRL-5879, RRID:CVCL_1480), NCI-H1876 (ATCC, cat. CRL-5902, RRID:CVCL_1503), DMS 114 (ATCC, cat. CRL-2066; RRID:CVCL_1174), NCI-H211 (ATCC, cat. CRL-5824; RRID:CVCL_1529), and SW 1271 (ATCC, cat. CRL-2177, RRID:CVCL_1716). The small cell lung cancer cell line COR-L88 was purchased from Sigma-Aldrich (cat. 92031917-1VL, RRID:CVCL_1141). The non-small cell lung cancer cell lines NCI-H226 (RRID:CVCL_1544) and NCI-H322M (RRID:CVCL_1557) were established at the NCI and grown from internal seed stocks. Pooled donor human umbilical vein endothelial cells (HUVEC, Lonza, cat. CC-2519) and human mesenchymal stem cells (hMSC, Lonza, cat. PT-2501) were purchased from Lonza (Walkersville, MD).
Cell Culture. All cells were maintained in an incubator at 37 degrees C and 5% CO2 with 95% humidity. […]

`CNCc1ccc(-c2cc(-c3nc(-c4ccc(S(=O)(=O)C(C)C)cc4)cnc3N)on2)cc1` + COc1cc2c(cc1O)CCNC21CSC2c3c(OC(C)=O)c(C)c4c(c3C(COC1=O)N1C(O)C3Cc5cc(C)c(OC)c(O)c5C(C21)N3C)OCO4 showed an IC50 (curve of first compound, second compound 30 pM) of 394 nM, an IC50 (curve of first compound, second compound 94.9 pM) of 331 nM and an IC50 (curve of first compound, second compound 0.0003 µM) of 248 nM. For the same compound, the IC50 (curve of first compound, second compound 0.000949 µM) was 30.7 nM, the IC50 (curve of first compound, second compound 0.003 µM) was < 9.49 nM and the viability, T/C (second compound 30 pM, first compound 0.00949 µM) was 108%. For the same compound, the viability, T/C (second compound 30 pM, first compound 0.03 µM) was 110%, the viability, T/C (second compound 30 pM, first compound 0.0949 µM) was 101% and the viability, T/C (second compound 30 pM, first compound 0.3 µM) was 57.5%. The viability, T/C (second compound 30 pM, first compound 0.949 µM) was 22.4%, the viability, T/C (second compound 30 pM, first compound 3 µM) was 7.83% and the viability, T/C (second compound 94.9 pM, first compound 0.00949 µM) was 102%. It also gave a viability, T/C (second compound 94.9 pM, first compound 0.03 µM) of 106%, a viability, T/C (second compound 94.9 pM, first compound 0.0949 µM) of 101% and a viability, T/C (second compound 94.9 pM, first compound 0.3 µM) of 50.2%. For the same compound, the viability, T/C (second compound 94.9 pM, first compound 0.949 µM) was 22.5%, the viability, T/C (second compound 94.9 pM, first compound 3 µM) was 5.19% and the viability, T/C (second compound 0.0003 µM, first compound 0.00949 µM) was 82%. The viability, T/C (second compound 0.0003 µM, first compound 0.03 µM) was 91.2%, the viability, T/C (second compound 0.0003 µM, first compound 0.0949 µM) was 75.9% and the viability, T/C (second compound 0.0003 µM, first compound 0.3 µM) was 43.7%. It also gave a viability, T/C (second compound 0.0003 µM, first compound 0.949 µM) of 19.8%, a viability, T/C (second compound 0.0003 µM, first compound 3 µM) of 8.93% and a viability, T/C (second compound 0.000949 µM, first compound 0.00949 µM) of 62.4%. It also gave a viability, T/C (second compound 0.000949 µM, first compound 0.03 µM) of 49.4%, a viability, T/C (second compound 0.000949 µM, first compound 0.0949 µM) of 31.6% and a viability, T/C (second compound 0.000949 µM, first compound 0.3 µM) of 10.9%. It also gave a viability, T/C (second compound 0.000949 µM, first compound 0.949 µM) of 7.96%, a viability, T/C (second compound 0.000949 µM, first compound 3 µM) of 3.08% and a viability, T/C (second compound 0.003 µM, first compound 0.00949 µM) of 0.92%. It also gave a viability, T/C (second compound 0.003 µM, first compound 0.03 µM) of 0.86%, a viability, T/C (second compound 0.003 µM, first compound 0.0949 µM) of 0.58% and a viability, T/C (second compound 0.003 µM, first compound 0.3 µM) of 0.62%. For the same compound, the viability, T/C (second compound 0.003 µM, first compound 0.949 µM) was 0.86% and the viability, T/C (second compound 0.003 µM, first compound 3 µM) was 0.52%.
`Cc1sc2c(c1C)C(c1ccc(Cl)cc1)=NC(CC(=O)Nc1ccc(O)cc1)c1nnc(C)n1-2` (stereo not given) was tested, and the viability, T/C (compound 0.00949 µM) was 93.4% and 99.2% and 89.1%, the viability, T/C (compound 0.03 µM) was 94.7% and 94.8% and 84.9% and the viability, T/C (compound 0.0949 µM) was 103% and 94.4% and 85.7%. For the same compound, the viability, T/C (compound 0.3 µM) was 63.8% and 67.1% and 47.9%, the viability, T/C (compound 0.949 µM) was 37.4% and 33.8% and 21.4% and the viability, T/C (compound 3 µM) was 20.6% and 19.2% and 17.3%. For the same compound, the IC50 (curve of compound) was 534 nM and 543 nM and 283 nM.
In the case of `Cc1cc(C)c(CNC(=O)c2cc(-c3ccc(CN4CCOCC4)cc3)cc3c2cnn3C2CCCC2)c(=O)[nH]1`, the viability, T/C (compound 0.0316 µM) is reported as 92.8% and 89.3% and 93.7%, the viability, T/C (compound 0.1 µM) is reported as 102% and 98.3% and 89.8% and the viability, T/C (compound 0.316 µM) is reported as 101% and 100% and 96.4%. For the same compound, the viability, T/C (compound 1 µM) was 84.1% and 93.3% and 95.8%, the viability, T/C (compound 3.16 µM) was 85.2% and 88.7% and 77.4% and the viability, T/C (compound 10 µM) was 44.7% and 56.8% and 52.6%. The IC50 (curve of compound) was 8670 nM and > 10000 nM.
`COc1ccc([C@@H](O)c2cc(-c3ncnc4cc(N5CCOCC5)ccc34)c(F)cc2Cl)nn1` + Cn1nnc2c(C(N)=O)ncn2c1=O was tested, and the IC50 (curve of first compound, second compound 1 µM) was 5380 nM, the IC50 (curve of first compound, second compound 3.16 µM) was 8270 nM and the IC50 (curve of first compound, second compound 10 µM) was > 10000 nM. For the same compound, the IC50 (curve of first compound, second compound 31.6 µM) was > 10000 nM, the IC50 (curve of first compound, second compound 100 µM) was > 10000 nM and the viability, T/C (second compound 1 µM, first compound 0.0316 µM) was 96.4%. It also gave a viability, T/C (second compound 1 µM, first compound 0.1 µM) of 94.1%, a viability, T/C (second compound 1 µM, first compound 0.316 µM) of 82% and a viability, T/C (second compound 1 µM, first compound 1 µM) of 78.3%. For the same compound, the viability, T/C (second compound 1 µM, first compound 3.16 µM) was 61.4%, the viability, T/C (second compound 1 µM, first compound 10 µM) was 36.7% and the viability, T/C (second compound 3.16 µM, first compound 0.0316 µM) was 92.8%. The viability, T/C (second compound 3.16 µM, first compound 0.1 µM) was 104%, the viability, T/C (second compound 3.16 µM, first compound 0.316 µM) was 90.9% and the viability, T/C (second compound 3.16 µM, first compound 1 µM) was 88.2%. It also gave a viability, T/C (second compound 3.16 µM, first compound 3.16 µM) of 64.3%, a viability, T/C (second compound 3.16 µM, first compound 10 µM) of 47.2% and a viability, T/C (second compound 10 µM, first compound 0.0316 µM) of 87%. For the same compound, the viability, T/C (second compound 10 µM, first compound 0.1 µM) was 98.7%, the viability, T/C (second compound 10 µM, first compound 0.316 µM) was 92% and the viability, T/C (second compound 10 µM, first compound 1 µM) was 75.1%. It also gave a viability, T/C (second compound 10 µM, first compound 3.16 µM) of 67.9%, a viability, T/C (second compound 10 µM, first compound 10 µM) of 54.6% and a viability, T/C (second compound 31.6 µM, first compound 0.0316 µM) of 89.3%. For the same compound, the viability, T/C (second compound 31.6 µM, first compound 0.1 µM) was 79.9%, the viability, T/C (second compound 31.6 µM, first compound 0.316 µM) was 84.6% and the viability, T/C (second compound 31.6 µM, first compound 1 µM) was 73.9%. It also gave a viability, T/C (second compound 31.6 µM, first compound 3.16 µM) of 67.2%, a viability, T/C (second compound 31.6 µM, first compound 10 µM) of 51.3% and a viability, T/C (second compound 100 µM, first compound 0.0316 µM) of 69.9%. It also gave a viability, T/C (second compound 100 µM, first compound 0.1 µM) of 70.8%, a viability, T/C (second compound 100 µM, first compound 0.316 µM) of 68% and a viability, T/C (second compound 100 µM, first compound 1 µM) of 62.5%. The viability, T/C (second compound 100 µM, first compound 3.16 µM) was 58.1% and the viability, T/C (second compound 100 µM, first compound 10 µM) was 55.4%.
In the case of `COc1cc2c(cc1O)CCNC21CSC2c3c(OC(C)=O)c(C)c4c(c3C(COC1=O)N1C(O)C3Cc5cc(C)c(OC)c(O)c5C(C21)N3C)OCO4` (stereo not given), the viability, T/C (compound 30 pM) is reported as 103% [middle of 10 runs], the viability, T/C (compound 94.9 pM) is reported as 110% [middle of 10 runs] and the viability, T/C (compound 0.0003 µM) is reported as 71.5% [middle of 10 runs]. For the same compound, the viability, T/C (compound 0.000949 µM) was 59.8% [middle of 10 runs], the viability, T/C (compound 0.003 µM) was 0.67% [middle of 10 runs] and the IC50 (compound alone, run of 10/25/2019) was 1.02 nM [middle of 10 runs].
